Where only a bound is given, the exact number is not on record here.

The experiment addresses T1, Seed linoleate 13S-lipoxygenase-1 (Glycine max, UniProt P08170).
T1 sequence (P08170 whole entry): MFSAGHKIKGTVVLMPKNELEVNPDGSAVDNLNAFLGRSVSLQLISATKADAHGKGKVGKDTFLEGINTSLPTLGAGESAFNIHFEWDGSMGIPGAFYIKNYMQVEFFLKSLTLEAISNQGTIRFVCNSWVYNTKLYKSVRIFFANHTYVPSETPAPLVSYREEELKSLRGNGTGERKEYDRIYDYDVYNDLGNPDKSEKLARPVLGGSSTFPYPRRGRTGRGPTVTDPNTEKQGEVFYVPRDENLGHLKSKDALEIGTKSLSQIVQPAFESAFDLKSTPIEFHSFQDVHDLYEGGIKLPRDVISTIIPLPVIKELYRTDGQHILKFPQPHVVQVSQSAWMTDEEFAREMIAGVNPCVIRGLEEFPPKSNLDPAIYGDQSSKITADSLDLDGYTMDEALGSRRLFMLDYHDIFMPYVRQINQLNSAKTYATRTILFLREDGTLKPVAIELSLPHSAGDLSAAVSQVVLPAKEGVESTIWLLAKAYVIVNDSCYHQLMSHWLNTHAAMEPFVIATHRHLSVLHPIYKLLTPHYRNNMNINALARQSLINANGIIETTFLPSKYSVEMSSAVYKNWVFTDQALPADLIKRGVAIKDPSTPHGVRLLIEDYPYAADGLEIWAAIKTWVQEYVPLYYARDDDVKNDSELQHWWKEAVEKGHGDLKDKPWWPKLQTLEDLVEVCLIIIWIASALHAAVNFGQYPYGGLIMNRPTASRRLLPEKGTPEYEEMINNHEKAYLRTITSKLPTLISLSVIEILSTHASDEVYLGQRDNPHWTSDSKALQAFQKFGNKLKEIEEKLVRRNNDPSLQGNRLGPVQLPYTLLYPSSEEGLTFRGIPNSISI
Description: 15LO Inhibition Assay. The conditions noted are these: pH 7; 25 °C. The protocol: Linoleic acid and two assay solutions (A and B) were prepared in advance. Solution A was 50 mM 3-(dimethylamino)benzoic acid (DMAB) in a 100 mM phosphate buffer (pH 7.0). Solution B was a mixture of 10 mM 3-methyl-2-benzothiazolinone (MBTH) 3 mL, hemoglobin (5 mg/mL, 3 mL) in 50 mM phosphate buffer at pH 5.0 (25 mL). A linoleic acid solution was prepared by mixing 5 mg of linoleic acid with 50 mg Tween-20 in 3 mL water and then diluting with KOH 100 mM to a final volume of 5 mL. In the standard assay, the sample in ethanol ([…]), soybean 15-lipo-oxygenase (SLO) (4000 units/mL in 50 mM phosphate buffer pH 7.0; […]) and phosphate buffer pH 7.0 (50 mM; […]) were mixed in a test-tube, and preincubation was carried out for 5 min at room temperature. A control test was done with the same volume of ethanol. After the preincubation, linoleic acid solution […] was added to start the peroxidation reaction, and 7 min later,solution A […] and then solution B […] was added to
With `Cc1nc(N2CCOCC2)nc(Sc2nnc(Sc3nc(N4CCOCC4)nc(C)c3Br)n2N)c1Br` [3,5-bis((5-bromo-6-methyl-2-morpholinopyrimidin-4-yl)thio)-4H-1,2,4-triazol-4-amine (4a)], the half-maximal inhibitory concentration (IC50) is greater than 500 µM. `Cc1nc(N2CCC(C)CC2)nc(Sc2nnc(Sc3nc(N4CCC(C)CC4)nc(C)c3Br)n2N)c1Br` [3,5-bis((5-bromo-6-methyl-2-(4-methylpiperidin-1-yl)pyrimidin-4-yl)thio)-4H-1,2,4-triazol-4-amine (4c)] gave an IC50 greater than 500 µM. As to `Cc1nc(N2CCCC2)nc(Sc2nnc(Sc3nc(N4CCCC4)nc(C)c3Br)n2N)c1Br` [3,5-bis((5-bromo-6-methyl-2-(pyrrolidin-1-yl)pyrimidin-4-yl)thio)-4H-1,2,4-triazol-4-amine (4g)], the IC50 is greater than 500 µM. The same measure for `Cc1nc(N2CCCCC2)nc(Sc2nnc(Sc3nc(N4CCCCC4)nc(C)c3Br)n2N)c1Br` [3,5-bis((5-bromo-6-methyl-2-(piperidin-1-yl)pyrimidin-4-yl)thio)-4H-1,2,4-triazol-4-amine (4b)]: greater than 500 µM; for `Cc1nc(N2CCN(c3ccccc3)CC2)nc(Sc2nnc(Sc3nc(N4CCN(c5ccccc5)CC4)nc(C)c3Br)n2N)c1Br` [3,5-bis((5-bromo-6-methyl-2-(4-phenylpiperazin-1-yl)pyrimidin-4-yl)thio)-4H-1,2,4-triazol-4-amine (4e)]: greater than 500 µM. The figure for `CCN1CCN(c2nc(C)c(Br)c(Sc3nnc(Sc4nc(N5CCN(CC)CC5)nc(C)c4Br)n3N)n2)CC1` [3,5-bis((5-bromo-6-methyl-2-(4-ethylpiperazin-1-yl)pyrimidin-4-yl)thio)-4H-1,2,4-triazol-4-amine (4f)] is 12 µM.

The compound `Cc1nc(N2CCN(C)CC2)nc(Sc2nnc(Sc3nc(N4CCN(C)CC4)nc(C)c3Br)n2N)c1Br` [3,5-bis((5-bromo-6-methyl-2-(4-methylpiperazin-1-yl)pyrimidin-4-yl)thio)-4H-1,2,4-triazol-4-amine (4d)] had an IC50 of 9 µM.
